Patent US12060592B2, “Lov-D acyltransferase mediated acylation” (priority 2009, dated 2024)

Each compound was assayed against T1, LovD acyltransferase (Aspergillus terreus, UniProt Q9Y7D1) (assay: LovD acyltransferase mediated acylation: relative activity of thioester acyl donors). Settings: thioester as acyl donor.
T1 sequence (Q9Y7D1 1-413): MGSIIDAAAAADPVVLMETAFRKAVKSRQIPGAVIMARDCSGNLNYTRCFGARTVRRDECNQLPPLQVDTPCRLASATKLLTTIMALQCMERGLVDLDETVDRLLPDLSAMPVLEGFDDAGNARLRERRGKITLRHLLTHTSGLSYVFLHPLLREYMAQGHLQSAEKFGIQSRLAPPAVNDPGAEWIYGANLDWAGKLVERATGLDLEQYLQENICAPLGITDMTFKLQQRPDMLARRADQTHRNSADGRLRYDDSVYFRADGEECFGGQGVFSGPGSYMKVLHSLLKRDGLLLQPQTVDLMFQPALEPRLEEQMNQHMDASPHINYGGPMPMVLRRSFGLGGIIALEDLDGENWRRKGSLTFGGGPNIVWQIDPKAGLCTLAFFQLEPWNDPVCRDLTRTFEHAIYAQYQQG
Format: biochemical
Description: Any one or more compounds shown in Table 1 may be used as thioesters in the methods of the present disclosure. Compound IV is one preferred thioester as its relative activity is high.

Row | Compound | Relative activity at 24 h (%)
1 | CCSC(=O)C(C)(C)CC [VII] | ++ (++ = 1-10)
2 | CCC(C)(C)C(=O)SC [VI] | + (+ = 0-1)
3 | CCC(C)(C)C(=O)SC(C)C [VIII] | + (+ = 0-1)
4 | CCC(C)(C)C(=O)SCCC(=O)OC [Compound IV] | ++++ (++++ = 75-100)
5 | CCCCSC(=O)C(C)(C)CC [IX] | +++ (+++ = 10-75)
6 | CCC(C)(C)C(=O)SCC(=O)OC [V] | ++ (++ = 1-10)
